Experimental data taken from ChEMBL document CHEMBL1123627, “Effect of beta-alkyl substitution on D-1 dopamine agonist activity: absolute configuration of beta-methyldopamine” (1987).

How the values were obtained:
Type in all cases: functional
Rattus norvegicus [1] = species: Rattus norvegicus; test: Ability to stimulate the production of cyclic AMP by rat retinal adenylate cyclase at a concentration of 0.1 uM
Rattus norvegicus [2] = species: Rattus norvegicus; test: Ability to stimulate the production of cyclic AMP by rat retinal adenylate cyclase at a concentration of 10 uM
Rattus norvegicus [3] = species: Rattus norvegicus; test: Ability to stimulate the production of cyclic AMP by rat retinal adenylate cyclase at a concentration of 1 uM

Row | SMILES | Stimulation (Rattus norvegicus [1]) [%] | Stimulation (Rattus norvegicus [2]) [%] | Stimulation (Rattus norvegicus [3]) [%]
1 | C[C@H](CN)c1ccc(O)c(O)c1 | 1.6 | 39.1 | 11.7
2 | NCC(c1ccccc1)c1ccc(O)c(O)c1 (stereo not given) | 4.9 | 97.1 | 16.3
3 | CC(CN)c1ccc(O)c(O)c1 (racemic) | 5.9 | 10.5 | -3.5
4 | CC(CN)c1ccc(O)c(O)c1 (single isomer, unassigned) | 1.5 | 41 | 6
5 | NCCc1ccc(O)c(O)c1 [DOPAMINE] | 31.4 | 205.4 | 106.4
